Results as given in patent US10350210B2, “EGFR and ALK dual inhibitor” (PRECEDO PHARMACEUTICALS CO., LTD, priority 2015, dated 2019).

What was measured:
BaF3-ALK-F1174L = assay: Cell growth (Cell Titer-Glo viability), BaF3-ALK-F1174L; format: cell-based; conditions: Mus musculus; BaF3-ALK-F1174L (mutant ALK F1174L kinase), 72 hrs
Source text: (§1) By testing the effect of the novel kinase inhibitors on the proliferation of cancer cells, the selectivity of the compounds of the present disclosure in inhibiting the proliferation of cancer cells was further assessed. In this example, human non-small cell lung cancer cell NCI-H1975 (expressing EGFR L858R/T790M double mutant gene), human skin squamous carcinoma cell A431 (expressing wild-type EGFR gene), non-small cell lung cancer NCI-H3255 (expressing EGFR L858R mutant gene), non-small cell lung cancer cell NCI-H3122 (expressing ALK gene), human non-small cell lung cancer cell A549 (expressing wild-type EGFR gene), human non-small cell lung cancer cell NCI-H2122 (expressing wild-type EGFR gene), human non-small cell lung cancer cell NCI-H460 (expressing wild-type EGFR gene), human non-small cell lung cancer cell PC-9 (expressing EGFR delE746_A750 mutant gene), Chinese hamster ovary cell CHO (Cricetulus griseus, hamster, Chinese, ovary), Chinese hamster lung cell CHL, human non-small cell lung cancer cell HCC827 (expressing mutant EGFR del19 gene), human lung adenocarcinoma cell HCC4006 (expressing mutant EGFR del19 gene), human non-small cell lung cancer cell NCI-H2228 (expressing wild-type ALK gene), and mouse primary B cell BaF3 were used, and the above cells were all purchased from ATCC (US). In addition, mouse BaF3-TEL-ALK (stably expressing ALK kinase), mouse BaF3-ALK-F1174L (stably expressing mutant ALK F1174L kinase), mouse BaF3-NPM-ALK (stably expressing ALK kinase), mouse BaF3-TEL-EGFR (stably expressing EGFR kinase), mouse BaF3-TEL-EGFR-T790M (stably expressing EGFR T790M mutant kinase), mouse BaF3-FL-EGFR-Del19 (stably expressing EGFR delE746_A750 mutant kinase), mouse BaF3-TEL-EGFR-L858R (stably expressing EGFR L858R mutant kinase), mouse BaF3-FL-EGFR-T790M-L858R (stably expressing EGFR T790M/L858R mutant kinase), mouse BaF3-TEL-INSR (stably expressing INSR protein), mouse BaF3-TEL-IGF1R (stably expressing IGF1R Protein), mouse BaF3-EML4-ALK (stably expressing EML4-ALK Protein), mouse BaF3-TEL-JAK3 (stably expressing JAK3 kinase protein), mouse BaF3-TEL-CSF1R (stably expressing CSF1R protein), and mouse BaF3-TEL-ALK-F1196M (stably expressing ALK F1196M mutant kinase) were also used in this example. The above cell lines were all established by our laboratory via the following process: kinase proteins or protein domain sequences of human ALK, ALK F1174L, EGFR, EGFR T790M, EGFR delE746_A750, EGFR L858, EGFR T790M/L858R, INSR, IGF1R, EML4-ALK, JAK3, CSF1R, ALK F1196M were amplified respectively by PCR, and were respectively inserted into MSCV-Puro vector (Clontech) with N-terminal TEL fragments and/or NPM fragments and/or TPR fragments; the resultants were stably transfected into mouse BaF3 cells by the means of retrovirus, and the IL-3 growth factors were removed, and eventually the ALK, ALK F1174L, EGFR, EGFR T790M, EGFR delE746_A750, EGFR L858, EGFR T790M/L858R, INSR, IGF1R, EML4-ALK, JAK3, CSF1R, ALK F1196M-transferred protein dependent cell lines were obtained.
(§2) The number of viable cells was determined quantitatively by a microplate reader using Cell Titer-Glo® (Promega, US) chemiluminescence cell viability assay kit.

BaF3-TEL-EGFR-T790M = assay: Cell growth (Cell Titer-Glo viability), BaF3-TEL-EGFR-T790M; format: cell-based; conditions: Mus musculus; BaF3-TEL-EGFR-T790M (EGFR T790M mutant kinase), 72 hrs
Source text: as §1, §2

NCI-H2122 = assay: Growth of cancer cells (Cell Titer-Glo viability), NCI-H2122; format: cell-based; conditions: Homo sapiens; NCI-H2122 (wild-type EGFR), 72 hrs
Source text: as §1, §2

NCI-H1975 = assay: Growth of cancer cells (Cell Titer-Glo viability), NCI-H1975; format: cell-based; conditions: Homo sapiens; NCI-H1975 (EGFR L858R/T790M double mutant), 72 hrs
Source text: as §1, §2

BaF3-TEL-ALK = assay: Cell growth (Cell Titer-Glo viability), BaF3-TEL-ALK; format: cell-based; conditions: Mus musculus; BaF3-TEL-ALK (stably expressing ALK kinase), 72 hrs
Source text: as §1, §2

PC-9 = assay: Growth of cancer cells (Cell Titer-Glo viability), PC-9; format: cell-based; conditions: Homo sapiens; PC-9 (EGFR delE746_A750 mutant), 72 hrs
Source text: as §1, §2

NCI-H3122 = assay: Growth of cancer cells (Cell Titer-Glo viability), NCI-H3122; format: cell-based; conditions: Homo sapiens; NCI-H3122 (expressing ALK gene), 72 hrs; read-out: GI50
Source text: as §1, §2

CHO = assay: Cell growth (Cell Titer-Glo viability), CHO; format: cell-based, Chinese hamster; conditions: Cricetulus griseus; CHO Chinese hamster ovary cell, 72 hrs; read-out: GI50
Source text: as §1, §2

HCC827 = assay: Growth of cancer cells (Cell Titer-Glo viability), HCC827; format: cell-based; conditions: Homo sapiens; HCC827 (mutant EGFR del19), 72 hrs
Source text: as §1, §2

A549 = assay: Growth of cancer cells (Cell Titer-Glo viability), A549; format: cell-based; conditions: Homo sapiens; A549 (wild-type EGFR), 72 hrs
Source text: as §1, §2

HCC4006 = assay: Growth of cancer cells (Cell Titer-Glo viability), HCC4006; format: cell-based; conditions: Homo sapiens; HCC4006 (mutant EGFR del19), 72 hrs
Source text: as §1, §2

BaF3-FL-EGFR-Del19 = assay: Cell growth (Cell Titer-Glo viability), BaF3-FL-EGFR-Del19; format: cell-based; conditions: Mus musculus; BaF3-FL-EGFR-Del19 (EGFR delE746_A750 mutant kinase), 72 hrs
Source text: as §1, §2

BaF3 = assay: Cell growth (Cell Titer-Glo viability), BaF3; format: cell-based; conditions: BaF3 mouse primary B cell, 72 hrs
Source text: as §1, §2

NCI-H2228 = assay: Growth of cancer cells (Cell Titer-Glo viability), NCI-H2228; format: cell-based; conditions: Homo sapiens; NCI-H2228 (wild-type ALK), 72 hrs
Source text: as §1, §2

A431 = assay: Growth of cancer cells (Cell Titer-Glo viability), A431; format: cell-based; conditions: Homo sapiens, A-431; A431 (wild-type EGFR), 72 hrs; read-out: GI50
Source text: as §1, §2

CHL = assay: Cell growth (Cell Titer-Glo viability), CHL; format: cell-based, Chinese hamster; conditions: Cricetulus griseus; CHL Chinese hamster lung cell, 72 hrs; read-out: GI50
Source text: as §1, §2

BaF3-TEL-EGFR = assay: Cell growth (Cell Titer-Glo viability), BaF3-TEL-EGFR; format: cell-based; conditions: Mus musculus; BaF3-TEL-EGFR (stably expressing EGFR kinase), 72 hrs
Source text: as §1, §2

NCI-H3255 = assay: Growth of cancer cells (Cell Titer-Glo viability), NCI-H3255; format: cell-based; conditions: Homo sapiens; NCI-H3255 (EGFR L858R mutant), 72 hrs
Source text: as §1, §2

NCI-H460 = assay: Growth of cancer cells (Cell Titer-Glo viability), NCI-H460; format: cell-based; conditions: Homo sapiens; NCI-H460 (wild-type EGFR), 72 hrs
Source text: as §1, §2

BaF3-NPM-ALK = assay: Cell growth (Cell Titer-Glo viability), BaF3-NPM-ALK; format: cell-based; conditions: Mus musculus; BaF3-NPM-ALK (stably expressing ALK kinase), 72 hrs
Source text: as §1, §2

| GI50 (BaF3-ALK-F1174L) [nM] | GI50 (BaF3-TEL-EGFR-T790M) [nM] | GI50 (NCI-H2122) [nM] | GI50 (NCI-H1975) [nM] | GI50 (BaF3-TEL-ALK) [nM] | GI50 (PC-9) [nM] | GI50 (NCI-H3122) [nM] | GI50 (HCC827) [nM] | GI50 (A549) [µM] | GI50 (HCC4006) [nM] | GI50 (BaF3-FL-EGFR-Del19) [nM] | GI50 (BaF3) [nM] | GI50 (NCI-H2228) [nM] | GI50 (A431) [nM] | GI50 (BaF3-TEL-EGFR) [nM] | GI50 (NCI-H3255) [nM] | GI50 (NCI-H460) [nM] | GI50 (BaF3-NPM-ALK) [nM] | SMILES | GI50 (CHO) [nM] | GI50 (CHL) [nM] |
| --- | --- | --- | --- | --- | --- | --- | --- | --- | --- | --- | --- | --- | --- | --- | --- | --- | --- | --- | --- | --- |
| 73 | 230 | 150 | 880 | < 0.3 | 53 | < 0.3 | 150 |  | 260 | 120 | 470 | 280 | 840 | 410 | 640 | 440 | < 3 | CCC(=O)Nc1cc(Nc2ncc(Cl)c(Nc3ccccc3S(=O)(=O)C(C)C)n2)c(OC)cc1N1CCC(N2CCN(C)CC2)CC1 [Compound 30, N-(5-(5-chloro-4-(2-(isopropylsulfonyl)phenylamino)pyrimidin-2-ylamino)-4-methoxy-2-(4-(4-methylpiperazin-1-yl)piperidin-1-yl)phenyl)propionamide] | 1900 | 730 |
| 140 | 420 | 310 |  | < 0.3 | 540 | < 0.3 | 370 | 1.5 | 440 |  |  | 580 | 1300 | 560 | 1000 | 470 | < 3 | COc1cc(N2CCC(N3CCN(C)CC3)CC2)ccc1Nc1ncc(Cl)c(Nc2ccccc2S(=O)(=O)C(C)C)n1 [TAE-684, reference compound] |  |  |
| 29 | 46 | 200 | 45 | < 0.3 | 53 | < 0.3 | 2.7 |  | 14 | 2 | 460 | 350 | 370 | 430 | 110 | 660 | < 3 | C=CC(=O)Nc1cc(Nc2ncc(Cl)c(Nc3ccccc3S(=O)(=O)C(C)C)n2)c(OC)cc1N1CCC(N2CCN(C)CC2)CC1 [Compound 8, N-(5-(5-chloro-4-(2-(isopropylsulfonyl)phenylamino)pyrimidin-2-ylamino)-4-methoxy-2-(4-(4-methylpiperazin-1-yl)piperidin-1-yl)phenyl)acrylamide] | 460 | 800 |

The remaining lines, values behind:

| SMILES | GI50 (BaF3-ALK-F1174L) [nM] | GI50 (BaF3-TEL-EGFR-T790M) [nM] | GI50 (NCI-H2122) [nM] | GI50 (NCI-H1975) [nM] | GI50 (BaF3-TEL-ALK) [nM] | GI50 (PC-9) [nM] | GI50 (NCI-H3122) [nM] | GI50 (HCC827) [nM] | GI50 (A549) [µM] | GI50 (HCC4006) [nM] | GI50 (BaF3-FL-EGFR-Del19) [nM] | GI50 (BaF3) [nM] | GI50 (NCI-H2228) [nM] | GI50 (A431) [nM] | GI50 (BaF3-TEL-EGFR) [nM] | GI50 (NCI-H3255) [nM] | GI50 (NCI-H460) [nM] | GI50 (BaF3-NPM-ALK) [nM] | GI50 (CHO) [nM] | GI50 (CHL) [nM] |
| --- | --- | --- | --- | --- | --- | --- | --- | --- | --- | --- | --- | --- | --- | --- | --- | --- | --- | --- | --- | --- |
| C=CC(=O)Nc1cc(Nc2ncc(Cl)c(Nc3ccccc3S(=O)(=O)C(C)C)n2)c(OC)cc1N1CCN(S(C)(=O)=O)CC1 [Compound 5, N-(5-(5-chloro-4-(2-(isopropylsulfonyl)phenylamino)pyrimidin-2-ylamino)-4-methoxy-2-(4-(methylsulfonyl)piperazin-1-yl)phenyl)acrylamide] | 2300 | 53 | 170 | 40 | 10 | 39 | < 0.3 | 44 | 3.3 | 160 | 7 | 2800 | 240 | 1100 |  |  |  |  | 5200 | 2300 |
| C=CC(=O)Nc1cc(Nc2ncc(Cl)c(Nc3ccccc3S(=O)(=O)C(C)C)n2)c(OC)cc1N1CCN(C(=O)OC(C)(C)C)CC1 [Compound 3, tert-butyl 4-(2-acrylamido-4-(5-chloro-4-(2-(isopropylsulfonyl)phenylamino)pyrimidin-2-ylamino)-5-methoxyphenyl)piperazine-1-carbonate] | 1300 | 290 | 710 | 380 | 24 | 250 | 32 | 370 | > 10 | 1100 | 130 | 4700 | 560 | 1200 |  |  |  |  | > 10000 | > 10000 |
